Values quoted from earlier work, collected in patent US20220401378A1, “COMPOSITIONS COMPRISING FUNCTIONAL FRAGRANCES AND CANNABIS-DERIVED COMPOUNDS” (THIS WORKS PRODUCTS LIMITED, priority 2020, published 2022).

Test system: anxiety

Row | SMILES | effectiveness in reducing anxiety compared with trazodone hydrochloride
1 | C=C[C@](C)(O)CCC=C(C)C [R-(−)-linalool] | as effective as the trazodone hydrochloride in reducing anxiety
2 | C=C[C@@](C)(O)CCC=C(C)C [S-(+)-linalool] | as effective as the trazodone hydrochloride in reducing anxiety
